Results on seven compounds are retold here after US10703748B2, “Diazanaphthalen-3-yl carboxamides and preparation and use thereof” (Samumed, LLC, priority 2017, dated 2020).

For assay [1], the system named is secreted cytokines TNFα, IL-6 and KC-GRO. Nature of the assay: Secreted cytokines in Lipopolysaccharide-stimulated BV-2 cells (Table 9 does not say which cytokine). The settings on record: Mus musculus, BV-2, 5 h; read-out: EC50. It counts as cell-based, mouse.
In assay [2] the test system is α-smooth muscle actin (aSMA) positive LL29 cells. Nature of the assay: Inhibition of the fibrotic process: αSMA staining in TGF-β1 treated LL29 fibroblasts from IPF patients. The conditions noted are these: Homo sapiens, Fibroblast; for EC50: 96 h.
Description: Each compound was dissolved in DMSO as a 10 mM stock and used to prepare compound source plates. […] LL29 cells were plated at 1,500 cells/well in 70 μL/well F12 medium supplemented with 1% Fetal Bovine Serum. […] Wells treated with TGF-β1 and containing DMSO were used as positive control, and cells with only DMSO were negative control. Cells were incubated at 37° C. and 5% CO2 for 4 days. Following incubation for 4 days, SYTOX green nucleic acid stain (Life Technologies [Thermo Fisher Scientific]) was added to the wells at a final concentration of 1 μM and incubated at room temperature for 30 min. Cells were then fixed using 4% formaldehyde (Electron Microscopy Sciences), washed 3 times with PBS followed by blocking and permeabilization using 3% Bovine Serum Albumin (BSA; Sigma) and 0.3% Triton X-100 (Sigma) in PBS.
For a further assay, the target named is DYRK1A kinase (Homo sapiens, UniProt Q13627). Briefly: DYRK1A kinase activity (Ser/Thr 18 peptide Z-lyte FRET assay).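 Note: kinase activity read as coumarin/fluorescein emission ratio after development step, with unphosphorylated and phosphorylated peptide forms setting 0% and 100% controls, values from dose-response curves.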 The settings on record: recombinant DYRK1A, 30 μM ATP, one hour at room temperature. The format is biochemical.
In assay [3] the test system is Wnt-responsive Sp5-Luc reporter in SW480 colon carcinoma cells. Briefly: Screening assay for Wnt activity (Sp5-Luc reporter gene assay). The settings on record: Homo sapiens; for EC50: SW480; for inhibition at 10 µM: SW480, read-out: percent inhibition at 10 μM. (In general: A reporter such as luciferase makes a cellular process visible.)
Description: The screening assay for Wnt activity is described as follows.
SW480 colon carcinoma cells were transduced with a lentiviral vector expressing luciferase with a human Sp5 promoter consisting of a sequence of eight TCF/LEF binding sites. […] These stably transduced SW480 cells were expanded in cell culture and used for all further screening activities. Each compound was dissolved in DMSO as a 10 mM stock and used to prepare compound source plates. Serial dilution (1:3, 10-point dose-response curves starting from 10 μM) and compound transfer was performed using the ECHO 550 (Labcyte, Sunnyvale, Calif.) into 384-well white solid bottom assay plates (Greiner Bio-One) with appropriate DMSO backfill for a final DMSO concentration of 0.1%. […] Following incubation, 15 μl of BriteLite Plus luminescence reagent (Perkin Elmer) was added to each well of the 384-well assay plates. The plates were placed on an orbital shaker for 2 min and then luminescence was quantified using the Envision (Perkin Elmer) plate reader.
The target of a further assay is GSK3β kinase (Homo sapiens, UniProt P49841). Nature of the assay: GSK3β kinase activity (Ser/Thr 09 peptide Z-lyte FRET assay). The format is biochemical. The settings on record: recombinant kinase, 46 μM ATP, one hour at room temperature; read-out: EC50.
Chain of GSK3β kinase (P49841 whole entry): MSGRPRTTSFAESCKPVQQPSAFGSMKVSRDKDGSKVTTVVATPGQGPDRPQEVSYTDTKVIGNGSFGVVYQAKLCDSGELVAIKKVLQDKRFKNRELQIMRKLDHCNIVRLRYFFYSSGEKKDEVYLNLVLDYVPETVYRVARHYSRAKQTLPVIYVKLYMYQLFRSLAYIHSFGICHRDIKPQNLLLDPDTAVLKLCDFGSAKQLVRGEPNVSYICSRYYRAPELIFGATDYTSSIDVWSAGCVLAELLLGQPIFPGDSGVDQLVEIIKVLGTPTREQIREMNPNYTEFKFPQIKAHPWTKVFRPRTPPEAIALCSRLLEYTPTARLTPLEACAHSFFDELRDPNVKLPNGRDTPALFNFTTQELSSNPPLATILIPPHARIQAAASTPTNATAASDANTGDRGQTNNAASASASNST
The subject of assay [4] is SW480 colon carcinoma cells. Nature of the assay: Cell viability assay (CellTiter-Glo). The settings on record: Homo sapiens; for EC50: SW480, 96 h; for inhibition at 10 µM: SW480, read-out: percent inhibition at 10 μM.
Another assay has as its system IL-6. Briefly: IL-6 inhibition in LPS-stimulated human peripheral blood mononuclear cells (HTRF). The conditions noted are these: Homo sapiens, PBMC; for EC50: 22 h; for inhibition at 10 µM: read-out: percentage in parentheses after EC50 >10. On the technique in general: Time-resolved FRET reads energy transfer from a long-lived donor to a nearby acceptor.

Molecules are shown by their SMILES. Where only a bound is given, the exact number is not on record here.

Description for DYRK1A kinase: Representative compounds were screened using the assay procedure for DYRK1A kinase activity as described below.
Each compound was dissolved in DMSO as a 10 mM stock and used to prepare compound source plates.
This is a non-radioactive assay using fluorescence resonance energy transfer (FRET) between coumarin and fluorescein to detect kinase activity which is represented as a ratio of coumarin emission/fluorescein emission.
The mixture was allowed to incubate with the representative compounds for one hour at room temperature. All reactions were performed in duplicate. Unphosphorylated (“0% Control”) and phosphorylated (“100% control”) forms of Ser/Thr 18 served as control reactions. Additionally, an 11-point dose-response curve of Staurosporine (1 uM top) was run to serve as a positive compound control.
After incubation, Development Reagent A was diluted in Development Buffer then added to the reaction and allowed to further incubate for one hour at room temperature.
Dose-response curves were generated and inhibitory concentration (IC50) values were calculated using non-linear regression curve fit in the Dotmatics' Studies Software (Bishops Stortford, UK).

The term EC50 denotes the concentration at which the effect is half-maximal. `CC(F)(F)CN1CCC(C(=O)Nc2cc3cc(-c4cnco4)cnc3cn2)CC1` [Compound 3257, 1-(2,2-Difluoropropyl)-N-(3-(oxazol-5-yl)-1,7-naphthyridin-6-yl)piperidine-4-carboxamide]: the half-maximal effective concentration (EC50) in assay [1] was 458 nM; in assay [2], over 10000 nM; on DYRK1A kinase, 16 nM; in assay [3], over 10000 nM; at GSK3β kinase it was 5300 nM; in assay [4], over 10000 nM. This compound showed a concentration for a half-maximal effect (EC50) in the assay with IL-6 of over 10000 nM. For the same compound, the inhibition at 10 µM in assay [2] (read-out: percentage in parentheses after EC50 >10) amounted to 36%; in assay [3], 12.9%; in assay [4], 15%; in the assay on IL-6 it was 3.2%.

In the case of `O=C(Nc1cc2nc(-c3cncc(NCC4(F)CNC4)n3)ccc2cn1)C1CC1` [Compound 871, N-(2-(6-(((3-Fluoroazetidin-3-yl)methyl)amino)pyrazin-2-yl)-1,6-naphthyridin-7-yl)cyclopropanecarboxamide], the EC50 in assay [1] was 306 nM; in assay [2] it was 8050 nM; on DYRK1A kinase it was 25 nM; in assay [3], over 10000 nM; at GSK3β kinase it was 360 nM; in assay [4], over 10000 nM. This compound gave an EC50 with IL-6 of 3420 nM. The inhibition at 10 µM in assay [3] came to 24.7%; in assay [4], 33.5%.

For `CN(C)CCNc1cc(C(=O)Nc2cc3cc(-c4cnn(C)c4)ncc3cn2)ccn1` [Compound 3791, 2-((2-(Dimethylamino)ethyl)amino)-N-(6-(1-methyl-1H-pyrazol-4-yl)-2,7-naphthyridin-3-yl)isonicotinamide], the EC50 in assay [1] is 3900 nM; in assay [2] it was 4950 nM; at DYRK1A kinase, 10 nM; in assay [3] it was 482 nM; on GSK3β kinase, 1350 nM; in assay [4], 3420 nM. The compound further showed an EC50 with IL-6 of over 10000 nM. Besides, the inhibition at 10 µM with IL-6 amounted to 0%.

Take `O=C(Nc1cc2nc(-c3cnco3)ccc2cn1)c1ccc(OC2CCNCC2)cc1` [Compound 4551, N-(2-(Oxazol-5-yl)-1,6-naphthyridin-7-yl)-4-(piperidin-4-yloxy)benzamide]: the concentration for a half-maximal effect (EC50) in assay [1] was 400 nM; in assay [2], 325 nM; on DYRK1A kinase it was 5 nM; in assay [3], 1020 nM; on GSK3β kinase it was 4240 nM; in assay [4] it was 1040 nM. The compound also gave an EC50 with IL-6 of 2990 nM.

`CN1CCN(c2cc(C(=O)Nc3ncc4ccc(-c5cnn(C)c5N)cc4n3)ccn2)CC1` [Compound 1210, N-(7-(5-Amino-1-methyl-1H-pyrazol-4-yl)quinazolin-2-yl)-2-(4-methylpiperazin-1-yl)isonicotinamide]: the EC50 in assay [1] was 1100 nM; in assay [2], 1400 nM; at DYRK1A kinase, 4 nM; in assay [3], 478 nM; on GSK3β kinase, over 10000 nM; in assay [4], 695 nM. Moreover, in the assay with IL-6, the EC50 was 3610 nM.

With `O=C(Nc1cc2cc(-c3cncc(N[C@H]4CCNC[C@@H]4F)n3)cnc2cn1)C1CC1` [Compound 3599, N-(3-(6-(((3S,4S)-3-Fluoropiperidin-4-yl)amino)pyrazin-2-yl)-1,7-naphthyridin-6-yl)cyclopropanecarboxamide], the concentration for a half-maximal effect (EC50) in assay [1] was 832 nM; in assay [2] it was 3010 nM; on DYRK1A kinase it was 8 nM; in assay [3], over 10000 nM; on GSK3β kinase, 780 nM; in assay [4] it was 8850 nM. Further, in the assay with IL-6, the EC50 is over 10000 nM. For the same compound, the results for the inhibition at 10 µM (in assay [3]; in the assay with IL-6) were 41.3% and 40.1%, respectively.

As to `Cn1cc(-c2ccc3cnc(NC(=O)c4ccc5nccnc5c4)cc3n2)cn1` [Compound 216, N-(2-(1-Methyl-1H-pyrazol-4-yl)-1,6-naphthyridin-7-yl)quinoxaline-6-carboxamide], the half-maximal effective concentration (EC50) in assay [1] was found to be 378 nM; in assay [2], 598 nM; at DYRK1A kinase, 7 nM; in assay [3] it was 447 nM; at GSK3β kinase it was 4850 nM; in assay [4], 3160 nM. Also, in the assay with IL-6, the EC50 was over 10000 nM. Also, the inhibition at 10 µM in the assay with IL-6 was 0%.
